Article PMC6934184, “Selective DNA-PKcs inhibition extends the therapeutic index of localized radiotherapy and chemotherapy” (The Journal of Clinical Investigation, 2019)

Biological target: T1, LRRK2 R1441C (Homo sapiens, UniProt Q5S007, R1441C)
T1 construct: purchased Thermo Fisher Scientific (Life Technologies) SelectScreen
Test: SelectScreen Adapta
Assay type: biochemical
Description: The in vitro kinase selectivity of NU5455 was determined using the SelectScreen Broad Assay Panel (Thermo Fisher Scientific) involving activity and binding assays (Supplemental Table 1). […] Class IA PI3Ks were measured using the p85α subunit.
Kinase [ATP] % Assay Kinase [ATP] % Assay Kinase [ATP] % Assay Kinase [ATP] % Assay […]
SGK (SGK1) Km app 8.5 Z MAP4K2 (GCK) Km app 2.7 Z TLK2 n/a -0.3 L STK38 (NDR) n/a -5.9 L
MERTK (cMER) Km app 8.3 Z CDK2/cyclin A Km app 2.7 Z TGFBR1 (ALK5) n/a -0.4 L MATK (HYL) Km app -6.3 Z
FYN Km app 8.3 Z EPHA1 Km app 2.7 Z CLK3 Km app -0.5 Z ABL1 E255K Km app -6.6 Z
TEC n/a 8.1 L CDK2/cyclin E1 n/a 2.7 L MAP3K14 (NIK) n/a -0.5 L STK17A (DRAK1) n/a -6.6 L
KIT V654A n/a 8.1 L TESK2 n/a 2.7 L AKT3 (PKB gamma) Km app -0.5 Z JAK2 JH1 JH2 Km app -6.7 Z
ROS1 Km app 8.0 Z SPHK1 Km app 2.7 A MAP3K9 (MLK1) Km app -0.5 Z PRKACB (PRKAC beta) n/a -6.8 L
FGFR3 K650E Km app 7.9 Z AMPK A2/B1/G1 Km app 2.6 Z IKBKB (IKK beta) Km app -0.6 Z PDGFRA (PDGFR alpha) Km app -6.8 Z
RAF1 (cRAF) Y340D Y341D 100 7.9 Z DYRK3 Km app 2.6 Z CAMK2A (CaMKII alpha) Km app -0.6 Z NEK9 Km app -7.2 Z
PI4KA (PI4K alpha) 10 7.8 A CSNK1D (CK1 delta) Km app 2.6 Z PRKCB1 (PKC beta I) Km app -0.7 Z PDK1 Km app -7.3 Z
HIPK2 Km app 7.8 Z ACVR2A n/a 2.5 L TTK n/a -0.7 L RPS6KB1 (p70S6K) Km app -7.8 Z
CSK Km app 7.6 Z DDR2 T654M n/a 2.5 L ZAK n/a -0.7 L STK38L (NDR2) n/a -8.4 L
PRKCG (PKC gamma) Km app 7.6 Z JAK2 Km app 2.5 Z IKBKE (IKK epsilon) Km app -0.7 Z ABL1 G250E Km app -8.5 Z
SRMS (Srm) Km app 7.5 Z HIPK3 (YAK1) Km app 2.5 Z CAMK2G (CaMKII gamma) n/a -0.8 L PRKD1 (PKC mu) Km app -8.5 Z
YES1 Km app 7.4 Z AMPK (A1/B1/G2) n/a 2.4 L TLK1 n/a -0.8 L CDK5/p35 Km app -8.6 Z
RPS6KA5 (MSK1) Km app 7.4 Z MYO3B (MYO3 beta) n/a 2.3 L MAPK12 (p38 gamma) Km app -0.8 Z PDGFRA T674I Km app -8.9 Z
TNIK n/a 7.3 L PASK Km app 2.3 Z PRKCI (PKC iota) Km app -0.8 Z BLK Km app -8.9 Z
FER Km app 7.1 Z ACVRL1 (ALK1) n/a 2.3 L PKN2 (PRK2) n/a -1.0 L PRKD2 (PKD2) Km app -9.1 Z
CDK16 (PCTK1)/cyclin Y n/a 7.0 L EGFR (ErbB1) L861Q Km app 2.2 Z PIM1 Km app -1.0 Z CSNK1G2 (CK1 gamma 2) Km app -9.3 Z
MST4 Km app 6.9 Z RPS6KA3 (RSK2) Km app 2.1 Z CDK5/p25 Km app -1.1 Z ROCK1 Km app -9.5 Z
FLT1 (VEGFR1) Km app 6.5 Z STK23 (MSSK1) Km app 2.0 Z SRPK1 Km app -1.1 Z PRKCB2 (PKC beta II) Km app -9.6 Z
DYRK1A Km app 6.4 Z ALK R1275Q n/a 2.0 L BRSK1 (SAD1) Km app -1.1 Z CSNK1G1 (CK1 gamma 1) Km app -9.9 Z
PRKCD (PKC delta) Km app 6.2 Z TBK1 Km app 2.0 Z MAP3K3 (MEKK3) n/a -1.1 L ABL2 (Arg) Km app -10.3 Z
EGFR (ErbB1) Km app 6.0 Z ACVR1B (ALK4) Km app 2.0 Z AMPK A1/B1/G1 Km app -1.2 Z STK3 (MST2) Km app -10.3 Z
CDC7/DBF4 n/a 6.0 L CDK3/cyclin E1 n/a 1.9 L WNK3 n/a -1.2 L CAMK4 (CaMKIV) Km app -10.4 Z
JAK3 Km app 6.0 Z KDR (VEGFR2) Km app 1.8 Z LATS1 n/a -1.3 L MKNK1 (MNK1) Km app -10.7 Z
MAPK13 (p38 delta) Km app 5.8 Z ULK1 n/a 1.8 L DMPK n/a -1.5 L FLT3 ITD n/a -11.6 L
FRAP1 (mTOR) Km app 5.7 Z AURKB (Aurora B) Km app 1.7 Z CDK2/cyclin A1 n/a -1.6 L CHEK2 (CHK2) Km app -11.7 Z
KIT Y823D n/a 5.6 L LRRK2 Km app 1.7 A LIMK1 n/a -1.7 L LTK (TYK1) Km app -13.1 Z
ITK Km app 5.5 Z MAP2K3 (MEK3) n/a 1.6 L DYRK1B Km app -1.8 Z JAK2 JH1 JH2 V617F Km app -13.8 Z
KIT Km app 5.3 Z DAPK1 Km app 1.6 A DDR1 n/a -1.8 L EPHA8 Km app -13.8 Z
CDK7/cyclin H/MNAT1 Km app 5.3 A EPHA6 n/a 1.6 L BTK Km app -2.0 Z EGFR (ErbB1) T790M L858R Km app -14.1 Z
RET Km app 5.2 Z MAP4K1 (HPK1) n/a 1.6 L ADRBK1 (GRK2) Km app -2.0 Z MET M1250T Km app -14.5 Z […]

T1 sequence (Q5S007 whole entry R1441C): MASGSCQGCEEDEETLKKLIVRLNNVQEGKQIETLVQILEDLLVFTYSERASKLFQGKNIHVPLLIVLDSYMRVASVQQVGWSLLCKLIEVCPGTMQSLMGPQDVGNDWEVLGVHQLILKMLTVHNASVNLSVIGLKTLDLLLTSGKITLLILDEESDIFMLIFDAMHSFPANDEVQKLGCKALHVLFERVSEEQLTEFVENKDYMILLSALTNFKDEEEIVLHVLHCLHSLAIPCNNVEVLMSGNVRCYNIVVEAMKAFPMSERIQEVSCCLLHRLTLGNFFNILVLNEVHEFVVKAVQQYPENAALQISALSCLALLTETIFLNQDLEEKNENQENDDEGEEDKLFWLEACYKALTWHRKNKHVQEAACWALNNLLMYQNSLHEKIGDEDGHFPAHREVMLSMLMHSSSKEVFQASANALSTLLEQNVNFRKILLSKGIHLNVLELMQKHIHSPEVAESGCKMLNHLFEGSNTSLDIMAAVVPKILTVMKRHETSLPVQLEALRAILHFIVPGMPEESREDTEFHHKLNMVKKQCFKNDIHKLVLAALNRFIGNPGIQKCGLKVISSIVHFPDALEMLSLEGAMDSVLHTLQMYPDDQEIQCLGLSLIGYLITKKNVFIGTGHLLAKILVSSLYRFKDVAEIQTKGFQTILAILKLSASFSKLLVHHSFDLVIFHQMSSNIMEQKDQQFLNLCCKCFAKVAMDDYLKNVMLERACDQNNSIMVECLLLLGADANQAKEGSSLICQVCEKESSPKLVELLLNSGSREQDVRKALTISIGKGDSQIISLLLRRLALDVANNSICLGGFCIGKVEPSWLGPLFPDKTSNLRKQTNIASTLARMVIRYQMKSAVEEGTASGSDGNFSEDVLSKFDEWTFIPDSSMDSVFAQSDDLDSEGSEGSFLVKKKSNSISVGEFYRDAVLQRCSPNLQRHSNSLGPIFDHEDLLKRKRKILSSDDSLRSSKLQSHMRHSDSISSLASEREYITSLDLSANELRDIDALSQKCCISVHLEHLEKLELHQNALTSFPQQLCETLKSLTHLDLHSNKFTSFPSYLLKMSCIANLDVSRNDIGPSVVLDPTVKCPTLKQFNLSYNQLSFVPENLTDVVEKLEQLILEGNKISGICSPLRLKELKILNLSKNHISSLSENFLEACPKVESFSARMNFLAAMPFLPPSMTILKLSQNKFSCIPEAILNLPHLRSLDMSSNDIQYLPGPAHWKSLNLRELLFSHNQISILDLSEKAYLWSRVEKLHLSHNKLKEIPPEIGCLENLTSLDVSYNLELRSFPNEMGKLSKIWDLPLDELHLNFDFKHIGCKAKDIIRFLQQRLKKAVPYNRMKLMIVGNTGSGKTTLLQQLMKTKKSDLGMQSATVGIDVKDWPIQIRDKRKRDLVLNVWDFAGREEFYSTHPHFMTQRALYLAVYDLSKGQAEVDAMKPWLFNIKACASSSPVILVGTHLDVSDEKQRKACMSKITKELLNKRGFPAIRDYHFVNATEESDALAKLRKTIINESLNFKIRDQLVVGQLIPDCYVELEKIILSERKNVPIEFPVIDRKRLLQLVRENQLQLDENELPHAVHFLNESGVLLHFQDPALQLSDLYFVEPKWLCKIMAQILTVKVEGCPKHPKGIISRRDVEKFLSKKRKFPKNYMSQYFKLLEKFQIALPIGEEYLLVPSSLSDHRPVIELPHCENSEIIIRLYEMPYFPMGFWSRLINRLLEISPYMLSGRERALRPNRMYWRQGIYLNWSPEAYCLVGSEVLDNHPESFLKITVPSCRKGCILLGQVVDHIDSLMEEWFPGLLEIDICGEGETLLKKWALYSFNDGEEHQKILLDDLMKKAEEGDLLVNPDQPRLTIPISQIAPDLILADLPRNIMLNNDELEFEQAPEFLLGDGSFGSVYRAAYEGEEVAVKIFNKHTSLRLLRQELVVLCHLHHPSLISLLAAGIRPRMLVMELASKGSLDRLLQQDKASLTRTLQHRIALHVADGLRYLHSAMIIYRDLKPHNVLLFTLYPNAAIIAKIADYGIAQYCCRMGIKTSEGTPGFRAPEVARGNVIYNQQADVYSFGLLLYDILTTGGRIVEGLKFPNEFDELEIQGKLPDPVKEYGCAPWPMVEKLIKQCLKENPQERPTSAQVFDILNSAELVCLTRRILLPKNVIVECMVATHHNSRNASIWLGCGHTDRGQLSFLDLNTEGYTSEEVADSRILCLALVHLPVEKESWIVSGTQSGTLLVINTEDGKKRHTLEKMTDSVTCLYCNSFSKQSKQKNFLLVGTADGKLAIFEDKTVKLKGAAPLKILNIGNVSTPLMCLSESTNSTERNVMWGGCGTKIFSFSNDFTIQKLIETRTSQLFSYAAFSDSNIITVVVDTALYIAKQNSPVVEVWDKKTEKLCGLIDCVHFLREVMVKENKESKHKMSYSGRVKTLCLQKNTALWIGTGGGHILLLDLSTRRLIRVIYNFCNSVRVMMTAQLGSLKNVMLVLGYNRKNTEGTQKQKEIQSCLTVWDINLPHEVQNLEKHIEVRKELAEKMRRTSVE

## CN(C(=O)CN1CCOCC1)c1ccc2sc3c(-c4cccc5c(=O)cc(N6CC7CCC(C6)O7)oc45)cccc3c2c1 [NU5455]
  inhibition at 1 µM: 1.8%
